Assay results from ChEMBL document CHEMBL1201862, “PubChem BioAssay data set” (2004).
Calls of active or inactive are those of the source. Rule as the data show it, for most assays here: actives have a measured IC50 and inactives only a lower limit.

Legend:
Assay type in all cases: functional
[1] = molecular target: T1, Apoptotic protease-activating factor 1 (Homo sapiens, UniProt O14727)
T1 sequence (O14727 whole entry): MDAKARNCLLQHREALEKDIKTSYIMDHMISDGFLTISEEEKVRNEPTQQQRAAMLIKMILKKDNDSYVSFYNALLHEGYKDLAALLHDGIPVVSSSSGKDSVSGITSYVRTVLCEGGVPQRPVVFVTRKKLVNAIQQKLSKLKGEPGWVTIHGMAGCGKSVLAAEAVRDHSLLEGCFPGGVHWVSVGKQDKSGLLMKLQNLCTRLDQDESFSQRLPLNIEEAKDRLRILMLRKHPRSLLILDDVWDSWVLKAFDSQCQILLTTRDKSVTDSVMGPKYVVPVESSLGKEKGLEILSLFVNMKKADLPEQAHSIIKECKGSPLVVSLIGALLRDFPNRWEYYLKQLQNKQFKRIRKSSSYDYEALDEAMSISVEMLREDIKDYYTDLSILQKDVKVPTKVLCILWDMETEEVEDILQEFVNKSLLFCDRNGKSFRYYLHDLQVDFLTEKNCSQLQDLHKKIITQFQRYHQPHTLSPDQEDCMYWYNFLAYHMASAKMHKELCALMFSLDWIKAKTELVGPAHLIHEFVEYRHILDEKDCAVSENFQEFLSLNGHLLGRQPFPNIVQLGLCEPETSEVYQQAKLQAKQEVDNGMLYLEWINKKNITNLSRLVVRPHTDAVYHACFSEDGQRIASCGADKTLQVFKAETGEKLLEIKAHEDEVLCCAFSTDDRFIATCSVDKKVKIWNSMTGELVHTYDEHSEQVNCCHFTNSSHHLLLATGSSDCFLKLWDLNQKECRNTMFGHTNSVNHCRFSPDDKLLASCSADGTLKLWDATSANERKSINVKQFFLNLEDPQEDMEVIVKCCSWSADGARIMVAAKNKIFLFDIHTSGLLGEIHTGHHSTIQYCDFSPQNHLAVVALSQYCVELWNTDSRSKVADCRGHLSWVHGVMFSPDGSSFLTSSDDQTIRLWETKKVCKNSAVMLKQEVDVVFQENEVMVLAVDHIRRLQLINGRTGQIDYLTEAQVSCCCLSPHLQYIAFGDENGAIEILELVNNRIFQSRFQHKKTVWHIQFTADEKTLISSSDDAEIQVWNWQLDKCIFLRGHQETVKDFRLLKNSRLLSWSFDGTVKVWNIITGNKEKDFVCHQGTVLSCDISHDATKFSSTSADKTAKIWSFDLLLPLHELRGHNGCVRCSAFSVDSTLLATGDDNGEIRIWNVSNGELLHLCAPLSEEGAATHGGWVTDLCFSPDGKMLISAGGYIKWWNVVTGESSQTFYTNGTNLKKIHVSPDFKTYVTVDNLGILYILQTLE

[2] = molecular target: T2, Sentrin-specific protease 6 (Homo sapiens, UniProt Q9GZR1);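 also: Luminescence-based dose-response confirmatory assay of SENP6 inhibition, following up an ultra-high-throughput screen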
T2 sequence (Q9GZR1 whole entry): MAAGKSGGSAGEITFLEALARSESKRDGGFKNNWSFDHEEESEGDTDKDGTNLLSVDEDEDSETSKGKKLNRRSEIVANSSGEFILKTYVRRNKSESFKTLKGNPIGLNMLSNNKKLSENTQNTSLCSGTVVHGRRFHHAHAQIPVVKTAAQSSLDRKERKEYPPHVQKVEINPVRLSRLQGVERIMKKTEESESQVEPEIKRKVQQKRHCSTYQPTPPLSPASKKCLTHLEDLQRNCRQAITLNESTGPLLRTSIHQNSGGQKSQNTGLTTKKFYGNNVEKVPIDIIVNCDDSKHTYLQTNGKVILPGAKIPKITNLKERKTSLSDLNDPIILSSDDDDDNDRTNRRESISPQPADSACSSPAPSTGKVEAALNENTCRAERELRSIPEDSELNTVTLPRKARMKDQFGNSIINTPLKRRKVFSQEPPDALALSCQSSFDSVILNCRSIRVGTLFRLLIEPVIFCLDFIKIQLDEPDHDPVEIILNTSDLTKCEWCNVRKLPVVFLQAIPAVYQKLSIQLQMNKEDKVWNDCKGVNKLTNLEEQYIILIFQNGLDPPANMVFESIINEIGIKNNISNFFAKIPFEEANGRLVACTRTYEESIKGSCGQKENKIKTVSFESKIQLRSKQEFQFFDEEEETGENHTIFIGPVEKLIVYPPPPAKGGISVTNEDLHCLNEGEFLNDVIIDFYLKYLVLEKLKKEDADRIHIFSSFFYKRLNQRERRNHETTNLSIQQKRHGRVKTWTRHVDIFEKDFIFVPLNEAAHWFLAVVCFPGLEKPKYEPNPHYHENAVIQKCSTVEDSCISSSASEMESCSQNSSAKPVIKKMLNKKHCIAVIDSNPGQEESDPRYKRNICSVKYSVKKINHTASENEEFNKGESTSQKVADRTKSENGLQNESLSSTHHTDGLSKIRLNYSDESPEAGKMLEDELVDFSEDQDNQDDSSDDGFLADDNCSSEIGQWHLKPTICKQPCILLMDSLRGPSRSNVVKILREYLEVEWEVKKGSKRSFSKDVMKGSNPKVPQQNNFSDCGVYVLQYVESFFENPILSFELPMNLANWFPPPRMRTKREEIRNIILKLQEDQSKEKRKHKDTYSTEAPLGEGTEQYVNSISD

[3] = molecular target: Induced myeloid leukemia cell differentiation protein Mcl-1 (Homo sapiens, UniProt Q07820)
Chain of Induced myeloid leukemia cell differentiation protein Mcl-1 (Q07820 whole entry): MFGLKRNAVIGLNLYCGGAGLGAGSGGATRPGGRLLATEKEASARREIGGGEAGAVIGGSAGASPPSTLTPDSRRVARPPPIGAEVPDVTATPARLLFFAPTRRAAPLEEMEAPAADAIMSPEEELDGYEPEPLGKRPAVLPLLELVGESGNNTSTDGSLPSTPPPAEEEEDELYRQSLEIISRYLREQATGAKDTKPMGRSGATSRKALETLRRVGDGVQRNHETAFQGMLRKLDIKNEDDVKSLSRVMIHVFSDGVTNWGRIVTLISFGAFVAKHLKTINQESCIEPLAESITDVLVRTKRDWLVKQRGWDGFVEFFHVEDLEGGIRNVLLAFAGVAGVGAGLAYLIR

Row | SMILES | IC50 [1] | IC50 [2] | IC50 [3]
1 | CCN1/C(=C/c2ccc3cc(C)ccc3[n+]2CC)Sc2cc(C)c(C)cc21 | 23.9 µM (active) | – | –
2 | COc1ccc(C(=O)Nc2nc3c(s2)Cc2cc(OC)ccc2-3)cc1 | 51.1 µM (active) | 1.65 µM (active) | 3.75 µM (active)
3 | Cc1oc2c(c1C(=O)c1ccccc1)C(=O)C(=O)c1ccccc1-2 | – | 6.87 µM (active) | –
4 | O=C1CCCC2=C1C1(O)C(=O)c3ccccc3C1(O)O2 (stereo not given) | 13.1 µM (active) | – | –
5 | O=C1C(Cl)=C(NCCN2CCCCC2)C(=O)c2ccccc21 | 5.4 µM (active) | – | –
6 | O=C(O)COc1ccc(/C=N/NC(=O)c2ccc(-c3csc(Nc4ccc(Cl)cc4)n3)cc2)cc1 | – | – | 0.886 µM (active)
7 | CC(/C=C1\SC(=S)N(NS(=O)(=O)c2ccccc2)C1=O)=C\c1ccccc1 | – | 2.64 µM (active) | 20.6 µM (active)
